From the supplement of paper PMC10307832

What follows are cell lines tested with CCOC(=O)CCNc1cc(N2CCc3ccccc3CC2)nc(-c2ccccn2)n1 [GSK-J4] + NC(=O)Nc1cc(-c2cccc(F)c2)sc1C(=O)N[C@H]1CCCNC1 [AZD7762] (partner 0.2 µM) (assay: relative viability (nuclei count vs DMSO), 5 days (fraction); higher = more cells survive). Details: first compound 0.5 µM.
Method in brief: (§1)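 Relative viability was taken as the ratio of nuclei in treated wells to nuclei in vehicle wells. Lung cancer cell lines in 1536-well plates received compounds by pin tool one day after seeding, either one drug alone or a fixed anchor-drug dose plus five library-drug doses (not always all listed) in √10 steps. Nuclei were counted on 4× images after 5 days of treatment, and values are medians of duplicate plates.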

For NCI-H3122, which relative viability is on record?
The relative viability was 1.01.

How did the relative viability turn out when BEN was run?
Its relative viability is 0.694.

NCI-H1395 was tested. Which relative viability did it give?
Its relative viability is 0.403.

With 201T as the cell line, how does the relative viability read?
Its relative viability is 0.602.

For NCI-H1993, which relative viability is on record?
The relative viability was 0.805.

With NCI-H1355 as the cell line, how does the relative viability read?
The relative viability was 0.731.

NCI-H2405 was tested. Which relative viability did it give?
The relative viability was 0.774.

With NCI-H1437 as the cell line, how does the relative viability read?
Its relative viability is 1.1.

With H3255 as the cell line, how does the relative viability read?
Its relative viability is 0.827.

How did the relative viability turn out when NCI-H2347 was run?
The relative viability was 0.779.

Which relative viability does the source give for NCI-H1975 here?
The relative viability was 0.783.

With NCI-H441 as the cell line, how does the relative viability read?
Its relative viability is 1.12.

Which relative viability does the source give for NCI-H1915 here?
The relative viability was 0.614.

How did the relative viability turn out when NCI-H2087 was run?
Its relative viability is 1.09.

How did the relative viability turn out when HCC-366 was run?
Its relative viability is 0.325.

Same assay, conditions: first compound 1.581 µM

NCI-H3122 was tested. Which relative viability did it give?
The relative viability was 0.917.

With BEN as the cell line, how does the relative viability read?
Its relative viability is 0.634.

How did the relative viability turn out when NCI-H1395 was run?
The relative viability was 0.415.

For 201T, which relative viability is on record?
The relative viability was 0.673.

Which relative viability does the source give for NCI-H1993 here?
Its relative viability is 0.683.

How did the relative viability turn out when NCI-H1355 was run?
Its relative viability is 0.693.

NCI-H2405 was tested. Which relative viability did it give?
Its relative viability is 0.954.

For NCI-H1437, which relative viability is on record?
The relative viability was 0.898.

H3255 was tested. Which relative viability did it give?
Its relative viability is 0.791.

With NCI-H2347 as the cell line, how does the relative viability read?
Its relative viability is 0.783.

For NCI-H1975, which relative viability is on record?
The relative viability was 0.633.

For NCI-H441, which relative viability is on record?
The relative viability was 1.

NCI-H1915 was tested. Which relative viability did it give?
The relative viability was 0.728.

For NCI-H2087, which relative viability is on record?
Its relative viability is 1.25.

For HCC-366, which relative viability is on record?
The relative viability was 0.258.

Same assay, conditions: first compound 5 µM

With NCI-H3122 as the cell line, how does the relative viability read?
The relative viability was 0.916.

BEN was tested. Which relative viability did it give?
Its relative viability is 0.441.

With NCI-H1395 as the cell line, how does the relative viability read?
The relative viability was 0.409.

With 201T as the cell line, how does the relative viability read?
The relative viability was 0.581.

With NCI-H1993 as the cell line, how does the relative viability read?
Its relative viability is 1.04.

NCI-H1355 was tested. Which relative viability did it give?
The relative viability was 0.516.

For NCI-H1437, which relative viability is on record?
Its relative viability is 1.02.

Which relative viability does the source give for H3255 here?
The relative viability was 0.727.

NCI-H2347 was tested. Which relative viability did it give?
Its relative viability is 0.781.

NCI-H441 was tested. Which relative viability did it give?
The relative viability was 1.05.

For NCI-H2087, which relative viability is on record?
Its relative viability is 1.05.

Same assay, conditions: first compound 15.81 µM

With NCI-H3122 as the cell line, how does the relative viability read?
Its relative viability is 0.93.

BEN was tested. Which relative viability did it give?
Its relative viability is 0.567.

Which relative viability does the source give for NCI-H1395 here?
The relative viability was 0.351.

For 201T, which relative viability is on record?
The relative viability was 0.561.

NCI-H1993 was tested. Which relative viability did it give?
Its relative viability is 0.604.

NCI-H1355 was tested. Which relative viability did it give?
The relative viability was 0.532.

Which relative viability does the source give for NCI-H2405 here?
The relative viability was 0.677.

Which relative viability does the source give for NCI-H1437 here?
The relative viability was 1.07.

For H3255, which relative viability is on record?
Its relative viability is 0.791.

Which relative viability does the source give for NCI-H2347 here?
The relative viability was 0.724.

With NCI-H1975 as the cell line, how does the relative viability read?
Its relative viability is 0.63.

How did the relative viability turn out when NCI-H441 was run?
The relative viability was 1.01.

How did the relative viability turn out when NCI-H1915 was run?
Its relative viability is 0.592.

For NCI-H2087, which relative viability is on record?
Its relative viability is 1.23.

With HCC-366 as the cell line, how does the relative viability read?
The relative viability was 0.226.

Same assay, conditions: first compound 50 µM

For NCI-H3122, which relative viability is on record?
Its relative viability is 1.

For BEN, which relative viability is on record?
The relative viability was 0.426.

Which relative viability does the source give for NCI-H1395 here?
Its relative viability is 0.413.

With 201T as the cell line, how does the relative viability read?
Its relative viability is 0.609.

With NCI-H1993 as the cell line, how does the relative viability read?
The relative viability was 0.435.

With NCI-H1355 as the cell line, how does the relative viability read?
The relative viability was 0.584.

Which relative viability does the source give for NCI-H2405 here?
Its relative viability is 0.738.

Which relative viability does the source give for NCI-H1437 here?
Its relative viability is 0.595.

Which relative viability does the source give for H3255 here?
The relative viability was 0.656.

NCI-H2347 was tested. Which relative viability did it give?
Its relative viability is 0.591.

NCI-H1975 was tested. Which relative viability did it give?
Its relative viability is 0.858.

Which relative viability does the source give for NCI-H441 here?
The relative viability was 0.967.

Which relative viability does the source give for NCI-H1915 here?
Its relative viability is 0.722.

With NCI-H2087 as the cell line, how does the relative viability read?
Its relative viability is 0.8.

How did the relative viability turn out when HCC-366 was run?
The relative viability was 0.312.

What follows are cell lines tested with CN1CCC(CC1)OC2=CC(=C(C=C2)NC3=NC=C4C(=N3)N(C(=O)N4C)C5CCCC5)OC [AZ3146] + Cc1nc(NC(=O)N2CCC[C@H]2C(N)=O)sc1-c1ccnc(C(C)(C)C(F)(F)F)c1 [Alpelisib] (partner 2 µM) in the same assay as above. Details: first compound 0.08 µM.
Method in brief: as §1

For NCI-H3122, which relative viability is on record?
Its relative viability is 0.68.

NCI-H1395 was tested. Which relative viability did it give?
Its relative viability is 1.08.

201T was tested. Which relative viability did it give?
Its relative viability is 0.943.

NCI-H1993 was tested. Which relative viability did it give?
The relative viability was 0.785.

With NCI-H1355 as the cell line, how does the relative viability read?
The relative viability was 0.836.

For NCI-H2405, which relative viability is on record?
The relative viability was 0.891.

For NCI-H1437, which relative viability is on record?
Its relative viability is 0.954.

For H3255, which relative viability is on record?
The relative viability was 0.749.

How did the relative viability turn out when NCI-H2347 was run?
Its relative viability is 0.944.

Which relative viability does the source give for NCI-H1975 here?
The relative viability was 0.658.

With NCI-H441 as the cell line, how does the relative viability read?
The relative viability was 0.58.

Which relative viability does the source give for NCI-H1915 here?
The relative viability was 0.978.

With NCI-H2087 as the cell line, how does the relative viability read?
The relative viability was 1.03.

For HCC-366, which relative viability is on record?
Its relative viability is 0.357.

Same assay, conditions: first compound 0.253 µM

With NCI-H3122 as the cell line, how does the relative viability read?
Its relative viability is 0.683.

Which relative viability does the source give for BEN here?
The relative viability was 0.967.

For NCI-H1395, which relative viability is on record?
The relative viability was 1.18.

With 201T as the cell line, how does the relative viability read?
The relative viability was 0.918.

How did the relative viability turn out when NCI-H1993 was run?
Its relative viability is 0.713.

Which relative viability does the source give for NCI-H1355 here?
The relative viability was 0.849.

Which relative viability does the source give for NCI-H1437 here?
The relative viability was 1.05.

Which relative viability does the source give for H3255 here?
The relative viability was 0.649.

For NCI-H2347, which relative viability is on record?
Its relative viability is 1.01.

For NCI-H1975, which relative viability is on record?
Its relative viability is 0.627.

NCI-H441 was tested. Which relative viability did it give?
Its relative viability is 0.719.

How did the relative viability turn out when NCI-H1915 was run?
The relative viability was 1.

With NCI-H2087 as the cell line, how does the relative viability read?
The relative viability was 1.04.

HCC-366 was tested. Which relative viability did it give?
The relative viability was 0.379.

Same assay, conditions: first compound 0.8 µM

Which relative viability does the source give for NCI-H3122 here?
Its relative viability is 0.702.

How did the relative viability turn out when BEN was run?
The relative viability was 1.06.

With NCI-H1395 as the cell line, how does the relative viability read?
Its relative viability is 0.998.

How did the relative viability turn out when 201T was run?
The relative viability was 0.954.

With NCI-H1993 as the cell line, how does the relative viability read?
Its relative viability is 0.61.

With NCI-H1355 as the cell line, how does the relative viability read?
Its relative viability is 0.897.

With NCI-H2405 as the cell line, how does the relative viability read?
Its relative viability is 0.789.

For NCI-H1437, which relative viability is on record?
The relative viability was 0.876.

Which relative viability does the source give for H3255 here?
The relative viability was 0.664.

How did the relative viability turn out when NCI-H2347 was run?
The relative viability was 0.708.

Which relative viability does the source give for NCI-H1975 here?
The relative viability was 0.671.

For NCI-H441, which relative viability is on record?
Its relative viability is 0.675.

For NCI-H1915, which relative viability is on record?
Its relative viability is 1.

Which relative viability does the source give for NCI-H2087 here?
The relative viability was 1.19.

How did the relative viability turn out when HCC-366 was run?
Its relative viability is 0.419.

Same assay, conditions: first compound 2.53 µM

NCI-H3122 was tested. Which relative viability did it give?
Its relative viability is 0.872.

How did the relative viability turn out when BEN was run?
Its relative viability is 1.07.

How did the relative viability turn out when NCI-H1395 was run?
Its relative viability is 0.994.

201T was tested. Which relative viability did it give?
The relative viability was 0.993.

NCI-H1993 was tested. Which relative viability did it give?
The relative viability was 0.666.

NCI-H1355 was tested. Which relative viability did it give?
Its relative viability is 0.723.

NCI-H2405 was tested. Which relative viability did it give?
The relative viability was 0.829.

How did the relative viability turn out when NCI-H1437 was run?
Its relative viability is 0.96.

H3255 was tested. Which relative viability did it give?
The relative viability was 0.754.

With NCI-H2347 as the cell line, how does the relative viability read?
The relative viability was 1.1.

NCI-H1975 was tested. Which relative viability did it give?
The relative viability was 0.616.

With NCI-H441 as the cell line, how does the relative viability read?
Its relative viability is 0.787.

Which relative viability does the source give for NCI-H1915 here?
The relative viability was 1.06.

How did the relative viability turn out when NCI-H2087 was run?
Its relative viability is 1.11.

For HCC-366, which relative viability is on record?
The relative viability was 0.433.

Same assay, conditions: first compound 8 µM

NCI-H3122 was tested. Which relative viability did it give?
Its relative viability is 0.775.

BEN was tested. Which relative viability did it give?
Its relative viability is 0.895.

How did the relative viability turn out when NCI-H1395 was run?
The relative viability was 1.26.

With 201T as the cell line, how does the relative viability read?
Its relative viability is 1.

For NCI-H1993, which relative viability is on record?
Its relative viability is 0.662.

How did the relative viability turn out when NCI-H1355 was run?
Its relative viability is 0.809.

Which relative viability does the source give for NCI-H2405 here?
The relative viability was 0.76.

With NCI-H1437 as the cell line, how does the relative viability read?
Its relative viability is 0.911.

How did the relative viability turn out when H3255 was run?
The relative viability was 0.656.

How did the relative viability turn out when NCI-H2347 was run?
The relative viability was 1.04.

For NCI-H1975, which relative viability is on record?
The relative viability was 0.301.

With NCI-H441 as the cell line, how does the relative viability read?
The relative viability was 0.647.
